Source: publication PMC13032676, “PGM1 deficiency is linked to sarcomeric and mitochondrial dysfunction in patient-derived iPSC-cardiomyocytes” (Journal of Translational Medicine, 2026)
“Also recorded” adds a separate entry of the source.

Assays:
[1] = molecular target: T1, human PGM1 (Homo sapiens, UniProt P36871); assay: Microscale-thermophoresis binding of ZM peptides to PGM1; conditions: His6-PGM1 labeled with RED-tris-NTA, 50 nM labeled PGM1, peptide 375 mM to 11.4 nM (16-step series), 10 min in the dark, 22 °C, 40% excitation power, 40% MST power, MO.Affinity v.2.2.4
T1 construct: made in house
T1 sequence (P36871 1-562): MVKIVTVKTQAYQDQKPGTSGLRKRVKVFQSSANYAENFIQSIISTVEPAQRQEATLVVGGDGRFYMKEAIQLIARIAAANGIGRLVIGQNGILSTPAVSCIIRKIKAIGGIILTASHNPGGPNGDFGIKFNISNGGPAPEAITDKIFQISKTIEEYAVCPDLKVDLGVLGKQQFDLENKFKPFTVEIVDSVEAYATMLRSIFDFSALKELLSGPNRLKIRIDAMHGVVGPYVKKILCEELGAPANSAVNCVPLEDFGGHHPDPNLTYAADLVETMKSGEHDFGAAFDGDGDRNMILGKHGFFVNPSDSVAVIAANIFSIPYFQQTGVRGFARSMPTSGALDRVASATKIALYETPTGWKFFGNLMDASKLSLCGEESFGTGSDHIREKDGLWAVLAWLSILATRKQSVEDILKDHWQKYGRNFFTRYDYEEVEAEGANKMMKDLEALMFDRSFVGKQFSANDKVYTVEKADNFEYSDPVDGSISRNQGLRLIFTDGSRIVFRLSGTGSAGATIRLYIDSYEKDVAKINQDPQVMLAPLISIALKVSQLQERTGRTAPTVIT
Description: For microscale-thermophoresis studies, a peptide representing the conserved Zasp motif (ZM) of ZASP/Cypher (26-mer: […]) and a corresponding peptide with the T106I mutation (underscored in sequence) were synthesized by ABI Scientific. A vector for recombinant expression of human PGM1 has been previously described. PGM1 was expressed and purified as previously described.
For binding studies, PGM1 was labeled using a commercial kit (NanoTemper Technologies, Inc.) according to the manufacturer’s specifications. Briefly, PGM1 was incubated at room temperature for 30 min with RED-tris-NTA dye, which specifically labels His6 tags, resulting in 100 nM labeled protein. The wild-type and T106I ZM peptides were serially diluted into a series of 16 PCR strip tubes and mixed 1:1 with labeled PGM1. The final concentration series of each peptide was […] to 11.4 nM, with all tubes containing 50 nM labeled PGM1. Samples were incubated in the dark for 10 min prior to use. Standard capillaries (Nanotemper MO-K022) were used to draw up the liquid and placed onto the sample tray of the Monolith NT.115 instrument (NanoTemper). Measurements were performed at 22 °C with control software at 40% excitation power and 40% MST power. Kd values were calculated using the MO. Affinity software v.2.2.4 (NanoTemper Technologies).

[2] = tested on: PGM1-CDG individuals; conditions: [5], [10], [11], [13] (b5), ref [7], cited from earlier work
[3] = tested on: PGM1-deficient iCMs; assay: Untargeted N-glycoproteomics; assay type: cell-based, human; conditions: low galactose in culture medium (in-house estimate 0.5 mM), no galactose-free arm
Procedure: Untargeted proteomics and N-glycoproteomics were performed to assess the (glyco)protein expression changes between PGM1-deficient and CTR iCMs based on previously published protocols (see supplementary materials for details).
Proteomics and N-glycoproteomics data analysis was performed as described previously. The proteomics data were searched using Sequest search engine in Proteome Discoverer 3.0 against the human Uniprot protein database. The N-glycoproteomics data using the publicly available software pGlyco version 3 with an in-built N-glycan database for identifying glycans and human Uniprot protein database for identifying peptide sequence. Two missed cleavages were allowed for both proteomics and glycoproteomics analysis. Error tolerance for precursor and fragment ions were set to 10 ppm and 0.02 Da, respectively, for proteomics and 10 ppm and 20 ppm, respectively, for glycoproteomics. […] For proteomics, quantitation of peptides across PGM1-CDG and […] was done using TMT reporter ion intensities using “reporter ion quantifier” node. To quantify glycopeptides, reporter ion quantification was performed for glycoproteomics raw files in Proteome Discoverer and glycopeptide IDs obtained from pGlyco were matched with quantitation on a scan-to-scan basis (MS/MS). […]

[4] = tested on: PGM1-deficient fibroblasts; conditions: ref [5], [61]; cited from earlier work
Description: First, we performed targeted tracer metabolomics studies of central carbon metabolism. Previously, decreased UDP-Hexose levels were linked to reduced glycosylation in PGM1-CDG, which improve in presence of galactose.

## LDB3 T206I mutant: corresponding peptide with the T106I mutation; dilated cardiomyopathy-associated LDB3 T206I mutant peptide (SSQPRQYNNPIGLYSAEILREMAQMY)
[1]
  in vitro binding affinity to PGM1 (Kd, in words): substantially reduced binding affinity (high µM)

## O=C[C@H](O)[C@@H](O)[C@@H](O)[C@H](O)CO [galactose]
[2]; galactose therapy in PGM1-CDG, ref [3], [7], [18]
  effect on cardiac (and skeletal muscle) manifestations (in words): fails to ameliorate cardiac and skeletal muscle involvement; also recorded: cardiac involvement does not respond to galactose therapy; also recorded: cardiac manifestations remain largely refractory to treatment
[2]; oral galactose supplementation in PGM1-CDG, ref [1], [3], [12]
  effect on glycosylation and systemic features (in words): improves systemic features; also recorded: effective correction of glycosylation defects and improvement of systemic clinical features
[3]
  effect on glycosylation (in words): partially restores glycosylation in PGM1-deficient iCMs; also recorded: sufficient to partially restore glycosylation in PGM1-deficient iCMs
[4]
  effect on UDP-hexose levels (in words): normalize UDP-hexose levels in PGM1-deficient fibroblasts

## SSQPRQYNNPIGLYSAETLREMAQMY [wild-type ZM peptide, peptide representing the conserved Zasp motif (ZM) of ZASP/Cypher (26-mer)]
[1]
  in vitro binding affinity to PGM1 (Kd, in words): high-affinity binding (low µM)
